This note sets out measurements from US10093694B2, “Compounds for treating eye disorders or diseases” (Guangzhou KangRui Biological Pharmaceutical Technology Co, …, priority 2016, dated 2018).

For test [1], the system named is mouse eyes (cataract). The test can be described thus: Cataract studies: mouse eyes treated with eye drop solution. As to conditions: eye drop solution 100 μM, three times a day, 50 μl each time, 6 weeks, versus negative control. It counts as in vivo. How it is done:
FIGS. 16A and 16B show the result of mouse eyes treated with an eye drop solution containing Compound 1 at 100 μM concentration three times a day for 50 μl each time for 6 weeks.

The subject of test [2] is mouse lenses (cataract). The test is described as follows: Cataract studies: dissected mouse cataract lenses incubated with compound, scored for clarity. To be noted: incubated with compound at the indicated concentrations for 4 hours at room temperature, PBS negative control showed no lens opacity change. The method, then:
FIGS. 14A and 14B show cataract lenses that have been treated with Compound 1. FIG. 14A show mouse lenses (white) that were dissected from the eye and placed into phosphate buffered saline solution (PBS) overnight at 4° C. Cataract was visible in all lenses. The cataract lenses were incubated with Compound 1 at the indicated concentration for 4 hours at room temperature and then scored for clarity. […] The PBS solution served as negative control and there were no lens opacity change.
FIGS. 15A and 15B show cataract lenses that have been treated with Compound 2. FIG. 15A show mouse lenses (white) that were dissected from the eye and placed into phosphate buffered saline solution (PBS) overnight at 4° C. Cataract was visible in all lenses. The cataract lenses were incubated with Compound 2 at the indicated concentration for 4 hours at room temperature and then scored for clarity. […] The PBS solution served as negative control and there were no lens opacity change.

Molecules are shown by their SMILES.

Consider `C[C@H](CCC(Br)C(C)(C)O)[C@H]1CC[C@@]2(C)C3=C(CC[C@]12C)[C@@]1(C)CC[C@H](O)C(C)(C)[C@@H]1CC3` (stereo partly drawn) [Compound 1, (3S,5R,10S,13R,14R,17R)-17-((2R)-5-bromo-6-hydroxy-6-methylheptan-2-yl)-4,4,10,13,14-pentamethyl-2,3,4,5,6,7,10,11,12,13,14,15,16,17-tetradecahydro-1H-cyclopenta[a]phenanthren-3-ol], for which the “clarity / cataract of treated eye” value in test [1] is “increased clarity and reduced cataract”. In addition, in test [2], the “lens clarity / cataract after treatment” value is “Increased lens clarity and reduced cataract”.
With `C[C@H](CCCC(C)(C)O)[C@H]1CC[C@@]2(C)C3=C(CC[C@]12C)[C@@]1(C)CC[C@H](O)C(C)(C)[C@@H]1CC3` [Compound 2, (3S,5R,10S,13R,14R,17R)-17-((R)-6-hydroxy-6-methylheptan-2-yl)-4,4,10,13,14-pentamethyl-2,3,4,5,6,7,10,11,12,13,14,15,16,17-tetradecahydro-1H-cyclopenta[a]phenanthren-3-ol], in test [2], the “lens clarity / cataract after treatment” value is “Increased lens clarity and reduced cataract”.
